# Measurements: patent US20230321044A1, “TREATMENT OR PREVENTION METHOD FOR CHRONIC HEART FAILURE” (Japan Tobacco Inc., priority 2020, published 2023)
# Entries after “also recorded” stand apart in the source; their conditions may differ.
# Legend:
# [1] = test system: post-myocardial infarction heart failure rats; assay: Assessment of cardiac function in rats with post-myocardial infarction heart failure (Test Example 1); format: in vivo, rat
# Procedure: Male SD rats (8-week old, Japan SLC, Inc.) were anesthetized with pentobarbital, then, under controlled mechanical ventilation, underwent thoracotomy and permanent ligation of the left anterior descending coronary artery to prepare rats with post-myocardial infarction heart failure. A sham-operated group was prepared by undergoing only thoracotomy in the same way to expose the heart. Two weeks later, vehicle (0.5% methylcellulose solution) or Compound 1 (3 mg/kg group or Ascending Dose group) was orally administered once daily to the group of post-myocardial infarction heart failure rat, and the vehicle was orally administered once daily to the sham-operated group. The dose for the Ascending Dose group was started with 3 mg/kg, increased to 6 mg/kg after two weeks and to 8 mg/kg after two more weeks, and maintained at 8 mg/kg thereafter. After eight weeks of administration, an ultrasonograph (Aplio 300, Toshiba Medical Systems Corporation) was used to measure the left ventricular ejection fraction, and Catheter-tipped micromanometer (Model SPR-320, Millar Inc.) was inserted into the left ventricle via the left carotid artery to measure the left ventricular end-diastolic pressure. For statistical analysis, Aspin-Welch t test was conducted between the sham-operated vehicle-administered group and the vehicle-administered group of post-myocardial infarction heart failure rats. Steel’s multiple comparison test was conducted for the Compound 1 group to the vehicle group of post-myocardial infarction heart failure rats. The significance level was two-sided 5%. Form the results, it was confirmed that the vehicle-administered group of post-myocardial infarction heart failure rats developed HFrEF because the left ventricular ejection fraction was decreased and the left ventricular end-diastolic pressure was increased, compared with the sham-operated vehicle-administered group.
# [2] = test system: hypertensive heart failure rats; assay: Assessment of cardiac function in rats with hypertensive heart failure (Test Example 2); format: in vivo, rat
# Procedure: Male DIS/Eis (Dahl-Iwai S) rats (Dahl rats) (7-week old, Japan SLC, Inc.) were fed a high-salt diet (MF 8% sodium chloride-adjusted feed, Oriental Yeast Co., ltd.) to prepare hypertensive heart failure rats. Normal controls were fed a normal diet (CRF-1 solid, Oriental Yeast Co., ltd.). Three weeks later, after confirmation of the development of pathological condition (hypertension or cardiomegaly), vehicle (0.5% methylcellulose solution) or Compound 1 (3 mg/kg group or Ascending Dose group) was orally administered to the hypertensive heart failure rat group once daily, and the vehicle was orally administered once daily to the normal control group. […] After five weeks of administration, an ultrasonograph (Aplio 300, Toshiba Medical Systems Corporation) was used to measure the left ventricular ejection fraction, and a non-invasive automated blood pressure measuring device (BP-98A, Softlon Co.,Ltd.) was used to measure the systolic blood pressure. After six weeks of administration, ADVantage P-V catheter (Model FTH-1918B-E318, Transonic Scisense Inc.) was inserted into the left ventricle from the apex to measure the left ventricular end-diastolic pressure. […] For statistical analysis, Student test or Aspin-Welch t test was conducted between the vehicle-administered normal control group and the vehicle-administered group of hypertensive heart failure rats. Dunnett’s multiple test was conducted for the Compound 1 group to the vehicle group of hypertensive heart failure rats. The significance level was two-sided 5%. Form the results, it was confirmed that the hypertensive heart failure rats developed HFpEF because the EDPVRβ and left ventricular end-diastolic pressure were increased whereas the left ventricular ejection fraction was not decreased, compared with the normal control group. […] Compound 1 also had no effect on the urine volume in the hypertensive heart failure rats.
smiles,measurement,setting,value
C[C@H]1C(=O)NC[C@@H]1C(=O)Nc1cc(-c2cc(F)cc(OC(C)(C)C)c2)n(C(F)(F)F)n1 [Compound 1],left ventricular ejection fraction,"[1]; 3 mg/kg group, oral once daily, eight weeks, vs vehicle, FIG. 2",higher value
same,left ventricular ejection fraction,"[1]; Ascending Dose group (3, then 6, then 8 mg/kg), oral once daily, eight weeks, vs vehicle, p < 0.05, FIG. 2",significantly increased
same,left ventricular ejection fraction,"[1]; dose groups not distinguished (3 mg/kg or Ascending Dose), oral once daily, eight weeks",increased
same,left ventricular end-diastolic pressure,"[1]; post-myocardial infarction heart failure rats, oral once daily, eight weeks, in comparison with the vehicle, FIG. 1",lower value; also recorded: suppressed
same,HFrEF improving effect,"[1]; post-myocardial infarction heart failure rats, overall conclusion",improved HFrEF; also recorded: has an HFrEF improving effect
same,EDPVRβ (end-diastolic pressure-volume relationship β),"[2]; 3 mg/kg group, oral once daily, six weeks, vs vehicle, FIG. 4",lower value
same,EDPVRβ (end-diastolic pressure-volume relationship β),"[2]; Ascending Dose group (3, then 6, then 8 mg/kg), oral once daily, six weeks, vs vehicle, p < 0.05, FIG. 4",significantly reduced
same,EDPVRβ (end-diastolic pressure-volume relationship β),"[2]; dose groups not distinguished, oral once daily, six weeks",reduced
same,left ventricular end-diastolic pressure,"[2]; hypertensive heart failure (Dahl) rats, oral once daily, six weeks, vs vehicle, p < 0.05 and p < 0.01, FIG. 3",significantly reduced
same,systolic blood pressure,"[2]; hypertensive heart failure rats, after five weeks of administration, FIG. 6",had no effect
same,urine volume,"[2]; hypertensive heart failure rats, in comparison with the vehicle, FIG. 7",did not affect; also recorded: had no effect
same,HFpEF improving effect,"[2]; hypertensive heart failure rats, overall conclusion",has an HFpEF improving effect
